## N[C@@H](CCC(=O)N[C@@H](CS)C(=O)NCC(=O)O)C(=O)O [L-glutathione]
L-Glutathione at a PH value of roughly 7 in the amino-acid component
  time to PH breakdown: a few weeks
At compounding
  PH above which L-glutathione itself breaks down: above 7.2

Source: patent US8142799B2, “High potency clinical anti-craving treatment and method of use” (priority 2001, dated 2012)
